pIC50: −log10 of the molar value. Activity calls are given as the source filed them. No cut-off for these calls is given here.
Key:
NCI/ADR-RES [1] = test: Induction of apoptosis in human MCF7ADR cells assessed as viable cells at 10 nM by Annexin V-FITC and propidium iodide staining based flow cytometry analysis (reference value: 85.75%); format: functional; settings: read-out: Activity
NCI/ADR-RES [2] = test: Induction of apoptosis in human MCF7ADR cells assessed as late apoptotic cells at 10 nM by Annexin V-FITC and propidium iodide staining based flow cytometry analysis (reference value: 7.24%); format: functional
NCI/ADR-RES [3] = test: Induction of apoptosis in human MCF7ADR cells assessed as necrotic cells at 10 nM by Annexin V-FITC and propidium iodide staining based flow cytometry analysis (reference value: 3.14%); format: functional
NCI/ADR-RES [4] = test: Induction of apoptosis in human MCF7ADR cells assessed as early apoptotic cells at 10 nM by Annexin V-FITC and propidium iodide staining based flow cytometry analysis (reference value: 3.87%); format: functional
Tubulin (Homo sapiens) [5] = target: T1, Tubulin (Homo sapiens) (UniProt P68371+Q9H4B7+P0DPH7+P68366+Q13509+Q71U36+P04350+Q3ZCM7+P07437+P68363+Q9BQE3+Q6PEY2+Q13885+Q9BVA1+Q9BUF5); test: Inhibition of tubulin depolymerization in human MCF7ADR cells assessed as change in microtubule morphology at 10 nM incubated for 72 hrs; format: cell-based
MCF7 [6] = test: Antiproliferative activity against human MCF7 cells incubated for 72 hrs by MTT assay; format: functional, cell-based; settings: MCF7, 72 h
MCF7 [7] = test: Reversal of paclitaxel resistance in human MCF7 cells assessed as reduction in paclitaxel IC50 at 5 uM pretreated with compound for 4 hrs followed by paclitaxel addition and measured after 72 hrs by MTT assay (reference value: 2.60 +/- 0.36 nM); format: functional, cell-based
NCI/ADR-RES [8] = test: Induction of apoptosis in human MCF7ADR cells assessed as late apoptotic cells at 10 uM by Annexin V-FITC and propidium iodide staining based flow cytometry analysis (reference value: 7.24%); format: functional
[9] = target: T2, ATP-dependent translocase ABCB1 (Homo sapiens, UniProt P08183); test: Binding affinity to ABCB1 (unknown origin) assessed as reduction in protein hydrolysis at 10 to 100 uM incubated for 1 hr followed by alkaline protease addition and measured after 15 mins by Western blotting analysis; settings: 1.25 h, dose 10-100 µM, time 75 min
NCI/ADR-RES [10] = test: Reversal of paclitaxel resistance in human MCF7ADR cells assessed as reversal fold by measuring ratio of paclitaxel IC50 to paclitaxel IC50 in presence of test compound at 10 uM incubated for 72 hrs by MTT assay; format: functional
NCI/ADR-RES [11] = test: Antiproliferative activity against human MCF7ADR cells assessed as survival rate at 5 uM incubated for 72 hrs by MTT assay; format: functional; settings: read-out: Survival
[12] = target: T2, ATP-dependent translocase ABCB1; test: Binding affinity to ABCB1 (unknown origin) assessed as change in thermal stability at 200 uM by CETSA
MCF7 [13] = test: Reversal of paclitaxel resistance in human MCF7 cells; format: functional, cell-based
NCI/ADR-RES [14] = test: Induction of DNA damage in human MCF7ADR cells at 10 uM by comet assay; format: functional, cell-based
NCI/ADR-RES [15] = test: Induction of paclitaxel mediated apoptosis in human MCF7ADR cells assessed as nuclear fragmentation at 10 uM in presence of paclitaxel by DAPI staining based assay; format: functional, cell-based
NCI/ADR-RES [16] = test: Induction of paclitaxel mediated apoptosis in human MCF7ADR cells assessed as necrotic cells at 10 uM in presence of paclitaxel by Annexin V-FITC and propidium iodide staining based flow cytometry analysis (reference value: 3.14%); format: functional
NCI/ADR-RES [17] = test: Induction of DNA damage in human MCF7ADR cells at 10 nM by comet assay; format: functional, cell-based
NCI/ADR-RES [18] = test: Synergistic antiproliferative activity against human MCF7ADR cells assessed as combination index at 10 uM in presence of PTX; format: functional
NCI/ADR-RES [19] = test: Induction of paclitaxel mediated apoptosis in human MCF7ADR cells assessed as viable cells at 10 uM in presence of paclitaxel by Annexin V-FITC and propidium iodide staining based flow cytometry analysis (reference value: 85.75%); format: functional; settings: read-out: Activity
Tubulin (Homo sapiens) [20] = target: T1, Tubulin (Homo sapiens); test: Inhibition of tubulin depolymerization in human MCF7ADR cells assessed as change in microtubule morphology at 10 uM incubated for 72 hrs; format: cell-based
NCI/ADR-RES [21] = test: Induction of apoptosis in human MCF7ADR cells assessed as necrotic cells at 10 uM by Annexin V-FITC and propidium iodide staining based flow cytometry analysis (reference value: 3.14%); format: functional
NCI/ADR-RES [22] = test: Antiproliferative activity against human MCF7ADR cells incubated for 72 hrs by MTT assay; format: functional, cell-based
MCF7 [23] = test: Reversal of paclitaxel resistance in human MCF7 cells assessed as reduction in paclitaxel IC50 at 10 uM pretreated with compound for 4 hrs followed by paclitaxel addition and measured after 72 hrs by MTT assay (reference value: 2.60 +/- 0.36 nM); format: functional, cell-based
NCI/ADR-RES [24] = test: Reversal of paclitaxel resistance in human MCF7ADR cells assessed as reduction in paclitaxel IC50 at 10 uM pretreated with compound for 4 hrs followed by paclitaxel addition and measured after 72 hrs by MTT assay (reference value: 6.68 +/- 0.35 microM); format: functional, cell-based
NCI/ADR-RES [25] = test: Inhibition of cell proliferation in human MCF7ADR cells assessed as reduction in cellular proliferation cells at 10 uM in presence of paclitaxel by EdU staining based assay; format: functional
NCI/ADR-RES [26] = test: Induction of paclitaxel mediated apoptosis in human MCF7ADR cells assessed as reduction in nuclei size at 10 uM in presence of paclitaxel by DAPI staining based assay; format: functional, cell-based
Tubulin (Homo sapiens) [27] = target: T1, Tubulin (Homo sapiens); test: Induction of paclitaxel mediated tubulin […] in human MCF7ADR cells assessed as appearance of cellular multinucleation at 10 uM incubated for 72 hrs in presence of paclitaxel; format: cell-based; settings: filed as activator
NCI/ADR-RES [28] = test: Induction of cell cycle arrest in human MCF7ADR cells assessed as accumulation of cells at G2/M phase at 10 uM in presence of paclitaxel by propidium iodide staining based flow cytometry analysis; format: functional
MCF7 [29] = test: Antiproliferative activity against human MCF7 cells assessed as survival rate at 5 uM incubated for 72 hrs by MTT assay; format: functional; settings: read-out: Survival
MCF7 [30] = test: Reversal of paclitaxel resistance in human MCF7 cells assessed as reversal fold by measuring ratio of paclitaxel IC50 to paclitaxel IC50 in presence of test compound at 5 uM incubated for 72 hrs by MTT assay; format: functional
[31] = Cytotoxicity against HUVECs assessed as cell viability at 10 uM; format: toxicity, cell-based; settings: human, HUVEC cells, read-out: Activity
NCI/ADR-RES [32] = test: Reversal of paclitaxel resistance in human MCF7ADR cells at 10 uM; format: functional, cell-based
NCI/ADR-RES [33] = test: Reversal of paclitaxel resistance in human MCF7ADR cells assessed as reversal fold by measuring ratio of paclitaxel IC50 to paclitaxel IC50 in presence of test compound at 5 uM incubated for 72 hrs by MTT assay; format: functional
MCF7 [34] = test: Reversal of paclitaxel resistance in human MCF7 cells assessed as reversal fold by measuring ratio of paclitaxel IC50 to paclitaxel IC50 in presence of test compound at 10 uM incubated for 72 hrs by MTT assay; format: functional
NCI/ADR-RES [35] = test: Induction of apoptosis in human MCF7ADR cells assessed as early apoptotic cells at 10 uM by Annexin V-FITC and propidium iodide staining based flow cytometry analysis (reference value: 3.87%); format: functional
NCI/ADR-RES [36] = test: Reversal of paclitaxel resistance in human MCF7ADR cells assessed as reduction in paclitaxel IC50 at 5 uM pretreated with compound for 4 hrs followed by paclitaxel addition and measured after 72 hrs by MTT assay (reference value: 6.68 +/- 0.35 microM); format: functional, cell-based
NCI/ADR-RES [37] = test: Induction of apoptosis in human MCF7ADR cells assessed as viable cells at 10 uM by Annexin V-FITC and propidium iodide staining based flow cytometry analysis (reference value: 85.75%); format: functional; settings: read-out: Activity
NCI/ADR-RES [38] = test: Induction of paclitaxel mediated apoptosis in human MCF7ADR cells assessed as late apoptotic cells at 10 uM in presence of paclitaxel by Annexin V-FITC and propidium iodide staining based flow cytometry analysis (reference value: 7.24%); format: functional
NCI/ADR-RES [39] = test: Effect on ABCB1 expression in human MCF7ADR cells upto 15 uM by Western blotting analysis; format: functional, cell-based
NCI/ADR-RES [40] = test: Induction of paclitaxel mediated apoptosis in human MCF7ADR cells assessed as early apoptotic cells at 10 uM in presence of paclitaxel by Annexin V-FITC and propidium iodide staining based flow cytometry analysis (reference value: 3.87%); format: functional
NCI/ADR-RES [41] = test: Induction of paclitaxel mediated DNA damage in human MCF7ADR cells at 10 uM in presence of paclitaxel by comet assay; format: functional, cell-based
NCI/ADR-RES [42] = test: Effect on subcellular localization of ABCB1 in human MCF7ADR cells at 10 uM incubated for 48 hrs by DAPI staining based assay; format: functional, cell-based
Tubulin (Homo sapiens) [43] = target: T1, Tubulin (Homo sapiens); test: Induction of paclitaxel mediated tubulin […] in human MCF7ADR cells assessed as appearance of filamentous microtubules at 10 uM incubated for 72 hrs in presence of paclitaxel; format: cell-based; settings: filed as activator
[44] = Cytotoxicity against HEK293T cells assessed as cell viability at 10 uM; format: toxicity, cell-based, HEK-293T; settings: human, read-out: Activity
NCI/ADR-RES [45] = test: Inhibition of colony formation in human MCF7ADR cells at 10 uM incubated for 7 days in presence of paclitaxel by crystal violet staining based assay; format: functional, cell-based; settings: time 7.0 day
[46] = Cytotoxicity against human GES1 cells assessed as cell viability at 10 uM; format: toxicity, cell-based; settings: read-out: Activity

T2 sequence (P08183 whole entry): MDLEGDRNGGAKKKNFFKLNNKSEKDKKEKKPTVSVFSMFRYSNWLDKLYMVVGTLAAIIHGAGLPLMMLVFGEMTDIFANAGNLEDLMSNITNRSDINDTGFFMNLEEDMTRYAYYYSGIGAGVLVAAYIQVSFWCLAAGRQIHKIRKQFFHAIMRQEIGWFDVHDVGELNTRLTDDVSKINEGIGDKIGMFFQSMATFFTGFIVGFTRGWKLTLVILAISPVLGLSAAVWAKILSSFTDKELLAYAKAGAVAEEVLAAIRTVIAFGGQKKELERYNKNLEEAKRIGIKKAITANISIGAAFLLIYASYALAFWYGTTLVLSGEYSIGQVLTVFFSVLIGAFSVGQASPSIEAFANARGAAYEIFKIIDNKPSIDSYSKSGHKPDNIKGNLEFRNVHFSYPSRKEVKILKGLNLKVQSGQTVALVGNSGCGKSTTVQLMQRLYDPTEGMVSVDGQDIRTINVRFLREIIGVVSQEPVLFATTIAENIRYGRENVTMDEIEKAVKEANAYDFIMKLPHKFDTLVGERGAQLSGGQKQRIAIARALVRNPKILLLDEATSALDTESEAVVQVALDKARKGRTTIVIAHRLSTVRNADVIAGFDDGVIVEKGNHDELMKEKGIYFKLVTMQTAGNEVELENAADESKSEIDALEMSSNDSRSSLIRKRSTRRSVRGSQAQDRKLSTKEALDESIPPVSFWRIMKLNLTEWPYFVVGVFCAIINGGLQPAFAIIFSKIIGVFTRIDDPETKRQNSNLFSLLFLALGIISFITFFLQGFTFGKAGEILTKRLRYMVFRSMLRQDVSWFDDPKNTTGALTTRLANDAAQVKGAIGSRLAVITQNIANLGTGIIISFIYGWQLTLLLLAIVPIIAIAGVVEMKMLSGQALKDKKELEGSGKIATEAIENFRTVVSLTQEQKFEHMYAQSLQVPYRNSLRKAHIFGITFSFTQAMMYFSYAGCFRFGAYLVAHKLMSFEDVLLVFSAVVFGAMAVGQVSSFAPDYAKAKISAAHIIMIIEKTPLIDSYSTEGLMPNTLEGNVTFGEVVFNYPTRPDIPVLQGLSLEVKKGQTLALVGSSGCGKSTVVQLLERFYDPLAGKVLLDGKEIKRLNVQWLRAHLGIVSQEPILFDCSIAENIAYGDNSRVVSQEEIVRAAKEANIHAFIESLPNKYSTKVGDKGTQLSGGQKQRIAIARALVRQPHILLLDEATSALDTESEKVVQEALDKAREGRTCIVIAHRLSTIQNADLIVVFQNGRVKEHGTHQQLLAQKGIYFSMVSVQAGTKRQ

For CC(=O)O[C@H]1C(=O)[C@@]2(C)[C@H]([C@H](OC(=O)c3ccccc3)[C@]3(O)C[C@H](OC(=O)[C@H](O)[C@@H](NC(=O)c4ccccc4)c4ccccc4)C(C)=C1C3(C)C)[C@]1(OC(C)=O)CO[C@@H]1C[C@@H]2O [PACLITAXEL], the viability at 0.01 µM (NCI/ADR-RES [1]) was 86.2%, the Activity (NCI/ADR-RES [2]) was 6.48% and the Activity (NCI/ADR-RES [3]) was 2.4%. For the same compound, the Activity (NCI/ADR-RES [4]) was 4.93% and the inhibition (Tubulin (Homo sapiens) [5]) was “inactive”.

In the case of COc1cc(-c2c(C)nc3cc(-c4cccs4)nn3c2-c2cc(OC)c(OC)c(OC)c2)cc(OC)c1OC, the pIC50 (MCF7 [6]) was < 4.70, the pIC50 (MCF7 [7]) was 8.53 and the Activity (NCI/ADR-RES [8]) was 7.98%. The Activity [9] was “Active”, the Ratio (NCI/ADR-RES [10]) was 663.44 and the viability at 5 µM (NCI/ADR-RES [11]) was 95%. For the same compound, the Activity [12] was “Active”, the Activity (MCF7 [13]) was “inactive” and the Activity (NCI/ADR-RES [14]) was “Active”. For the same compound, the Activity (NCI/ADR-RES [15]) was “Active”, the Activity (NCI/ADR-RES [16]) was 4.28% and the Activity (NCI/ADR-RES [17]) was “Active”. For the same compound, the CI (NCI/ADR-RES [18]) was 0.09, the viability at 10 µM (NCI/ADR-RES [19]) was 52.3% and the inhibition (Tubulin (Homo sapiens) [20]) was “inactive”. For the same compound, the Activity (NCI/ADR-RES [21]) was 1.44%, the pIC50 (NCI/ADR-RES [22]) was < 4.70 and the pIC50 (MCF7 [23]) was 8.58. The pIC50 (NCI/ADR-RES [24]) was 8.00, the inhibition (NCI/ADR-RES [25]) was “Active” and the Activity (NCI/ADR-RES [26]) was “Active”. The Activity (Tubulin (Homo sapiens) [27]) was “Active”, the Activity (NCI/ADR-RES [28]) was “Active” and the viability at 5 µM (MCF7 [29]) was 97.7%. The Ratio (MCF7 [30]) was 0.88, the viability at 10 µM [31] was > 80% and the Activity (NCI/ADR-RES [32]) was “Active”. It also gave a Ratio (NCI/ADR-RES [33]) of 247.4, a Ratio (MCF7 [34]) of 0.98 and an Activity (NCI/ADR-RES [35]) of 6.17%. The pIC50 (NCI/ADR-RES [36]) was 7.57, the viability at 10 µM (NCI/ADR-RES [37]) was 84.4% and the Activity (NCI/ADR-RES [38]) was 29.54%. The Activity (NCI/ADR-RES [39]) was “inactive”, the Activity (NCI/ADR-RES [40]) was 13.87% and the Activity (NCI/ADR-RES [41]) was “Active”. The Activity (NCI/ADR-RES [42]) was “inactive”, the Activity (Tubulin (Homo sapiens) [43]) was “Active” and the viability at 10 µM [44] was > 80%. For the same compound, the inhibition (NCI/ADR-RES [45]) was “Active” and the viability at 10 µM [46] was > 80%.

For COc1ccc(CCN(C)CCCC(C#N)(c2ccc(OC)c(OC)c2)C(C)C)cc1OC (stereo not drawn) [VERAPAMIL], the pIC50 (MCF7 [6]) was < 4.70, the pIC50 (MCF7 [7]) was 8.99 and the Ratio (NCI/ADR-RES [10]) was 96.11. For the same compound, the viability at 5 µM (NCI/ADR-RES [11]) was > 99%, the pIC50 (NCI/ADR-RES [22]) was < 4.70 and the pIC50 (MCF7 [23]) was 8.57. For the same compound, the pIC50 (NCI/ADR-RES [24]) was 7.16, the viability at 5 µM (MCF7 [29]) was > 99% and the Ratio (MCF7 [30]) was 2.55. It also gave a Ratio (NCI/ADR-RES [33]) of 39.29, a Ratio (MCF7 [34]) of 0.97 and a pIC50 (NCI/ADR-RES [36]) of 6.77.
